Test results published in patent US9562031B1, “Phenethyldihydrobenzodioxolones and methods of use” (Sequoia Sciences, Inc., priority 2015, dated 2017).
Like-named read-outs stand apart in the source and are kept apart here.

Experiments:
[1] = tested on: M14 (amelanotic melanoma) cells; assay: antiproliferation assay (72 h, CELLTITER 96), M14; assay type: cell-based, human; conditions: Homo sapiens
Method: (§1) All of the compounds shown in Table 3-Table 8 below were prepared synthetically as described in EXAMPLE I. The compounds were tested for their ability to inhibit the proliferation of human cancer cells in vitro as described in the following paragraph. Table 3-Table 8 list the IC50 values in the M14 and NCI-H460 human cancer cell lines. IC50 is defined as the concentration of compound necessary to achieve 50% of the maximum growth inhibition.
(§2) For the antiproliferation assay, NCI-H460 (large cell lung carcinoma) or M14 (amelanotic melanoma) cells were grown in RPMI-1640 with 10% FBS supplemented with L-glutamine and HEPES. Cells were seeded into 96-well plates at 5×10^2 to 5×10^4 cells/well and allowed to adhere overnight; the medium was then removed. A stock solution of test compound in DMSO was diluted in medium to generate a series of working solutions. Aliquots (100 μl) of the working solutions were then added to the appropriate test wells to expose cells to the final concentrations of compound in a total volume of 100 μl. Seven different concentrations were tested, with 2-5 wells per concentration. Camptothecin was used as a positive control; wells containing vehicle without compound were used as negative controls. Plates were kept for 72 h in a 37° C., 5% CO2 incubator. After incubation, viable cells were detected with the CELLTITER 96 AQueous Non-Radioactive Cell Proliferation Assay (Promega), and IC50 values were determined using GraphPad Prism 5 software.

[2] = tested on: NCI-H460 (large cell lung carcinoma) cells; assay: antiproliferation assay (72 h, CELLTITER 96), NCI-H460; assay type: cell-based, human; conditions: Homo sapiens, read-out: NCI-H460 IC50
Method: as §1, §2

Structure (SMILES) | IC50 ([1]; Table 4) [nM] | IC50 ([2]; NCI-H460, Table 4) [nM] | IC50 ([1]; Table 5) [nM] | IC50 ([2]; NCI-H460, Table 5) [nM] | IC50 ([1]; Table 6) [nM] | IC50 ([2]; NCI-H460, Table 6) [nM]
C=CC[C@H]1C[C@]2([C@H](C)Cc3ccc(OC)c(CO)c3)OCOC2=CC1=O [Compound 28, (6S,7aR)-6-allyl-7a-((R)-1-(3-(hydroxymethyl)-4-methoxyphenyl)propan-2-yl)-7,7a-dihydrobenzo[d][1,3]dioxol-5(6H)-one] | 10000 | 4200 | – | – | – | –
C=CC[C@H]1C[C@]2([C@@H](C)Cc3ccc(OC)c(C(=O)NC)c3)OCOC2=CC1=O [Compound 30, 5-((S)-2-((3aR,5S)-5-allyl-6-oxo-3a,4,5,6-tetrahydrobenzo[d][1,3]dioxol-3a-yl)propyl)-2-methoxy-N-methylbenzamide] | 1400 | 1100 | – | – | – | –
C=CC[C@H]1C[C@]2([C@@H](C)Cc3ccc(OC)c(C#N)c3)OCOC2=CC1=O [Compound 31, 5-((S)-2-((3aR,5S)-5-allyl-6-oxo-3a,4,5,6-tetrahydrobenzo[d][1,3]dioxol-3a-yl)propyl)-2-methoxybenzonitrile] | 180 | 340 | – | – | – | –
C=CC[C@H]1C[C@]2(C(C)Cc3ccc(OC)c(OC(C)=O)c3)OCOC2=CC1=O (stereo partly drawn) [Compound 33, 5-(2-((3aR,5S)-5-allyl-6-oxo-3a,4,5,6-tetrahydrobenzo[d][1,3]dioxol-3a-yl)propyl)-2-methoxyphenyl acetate] | 16 | 110 | – | – | – | –
C=CC[C@H]1C[C@]2(C(C)Cc3ccc(OC)c(N)c3)OCOC2=CC1=O (stereo partly drawn) [Compound 34, (6S,7aR)-6-allyl-7a-(1-(3-amino-4-methoxyphenyl)propan-2-yl)-7,7a-dihydrobenzo[d][1,3]dioxol-5(6H)-one] | 49 | 180 | – | – | – | –
C=CC[C@H]1C[C@]2([C@@H](C)Cc3ccc(OC)c(NC(C)=O)c3)OCOC2=CC1=O [Compound 35, N-(5-((S)-2-((3aR,5S)-5-allyl-6-oxo-3a,4,5,6-tetrahydrobenzo[d][1,3]dioxol-3a-yl)propyl)-2-methoxyphenyl)acetamide] | 85 | 310 | – | – | – | –
C=CCNc1cc(CC(C)[C@]23C[C@H](CC=C)C(=O)C=C2OCO3)ccc1OC (stereo partly drawn) [Compound 36, (6S,7aR)-6-allyl-7a-(1-(3-(allylamino)-4-methoxyphenyl)propan-2-yl)-7,7a-dihydrobenzo[d][1,3]dioxol-5(6H)-one] | 720 | 1900 | – | – | – | –
C=CC[C@H]1C[C@]2([C@@H](C)Cc3ccc(OC)c(Cl)c3)OCOC2=CC1=O [Compound 38, (6S,7aR)-6-allyl-7a-((S)-1-(3-chloro-4-methoxyphenyl)propan-2-yl)-7,7a-dihydrobenzo[d][1,3]dioxol-5(6H)-one] | 240 | 640 | – | – | – | –
C=CC[C@H]1C[C@]2([C@H](C)Cc3ccc(OC)c(Cl)c3)OCOC2=CC1=O [Compound 39, (6S,7aR)-6-allyl-7a-((R)-1-(3-chloro-4-methoxyphenyl)propan-2-yl)-7,7a-dihydrobenzo[d][1,3]dioxol-5(6H)-one] | 130 | 420 | – | – | – | –
C=CC[C@H]1C[C@]2(C(C)Cc3ccc(OCC)cc3)OCOC2=CC1=O (stereo partly drawn) [Compound 40, (6S,7aR)-6-allyl-7a-(1-(4-ethoxyphenyl)propan-2-yl)-7,7a-dihydrobenzo[d][1,3]dioxol-5(6H)-one] | – | – | 650 | 2000 | – | –
C=CC[C@H]1C[C@]2([C@@H](C)Cc3ccc(OC(F)(F)F)cc3)OCOC2=CC1=O [Compound 41, (6S,7aR)-6-allyl-7a-((S)-1-(4-(trifluoromethoxy)phenyl)propan-2-yl)-7,7a-dihydrobenzo[d][1,3]dioxol-5(6H)-one] | – | – | > 20000 | 3800 | – | –
C=CC[C@H]1C[C@]2([C@@H](C)Cc3ccc(N)c(F)c3)OCOC2=CC1=O [Compound 42, (6S,7aR)-6-allyl-7a-((S)-1-(4-amino-3-fluorophenyl)propan-2-yl)-7,7a-dihydrobenzo[d][1,3]dioxol-5(6H)-one] | – | – | 810 | 2500 | – | –
C=CC[C@H]1C[C@]2([C@H](C)Cc3ccc(NC)c(F)c3)OCOC2=CC1=O [Compound 43, (6S,7aR)-6-allyl-7a-((R)-1-(3-fluoro-4-(methylamino)phenyl)propan-2-yl)-7,7a-dihydrobenzo[d][1,3]dioxol-5(6H)-one] | – | – | 64 | 300 | – | –
C=CC[C@H]1C[C@]2([C@H](C)Cc3ccc(N(C)C)c(F)c3)OCOC2=CC1=O [Compound 46, (6S,7aR)-6-allyl-7a-((R)-1-(4-(dimethylamino)-3-fluorophenyl)propan-2-yl)-7,7a-dihydrobenzo[d][1,3]dioxol-5(6H)-one] | – | – | 640 | 1400 | – | –
C=CC[C@H]1C[C@]2([C@H](C)Cc3cc(F)c(N(C)C)cc3F)OCOC2=CC1=O [Compound 47, (6S,7aR)-6-allyl-7a-((R)-1-(4-(dimethylamino)-2,5-difluorophenyl)propan-2-yl)-7,7a-dihydrobenzo[d][1,3]dioxol-5(6H)-one] | – | – | 75 | 330 | – | –
C=CC[C@H]1C[C@]2([C@@H](C)Cc3cc(F)c(N(C)C)cc3F)OCOC2=CC1=O [Compound 48, (6S,7aR)-6-allyl-7a-((S)-1-(4-(dimethylamino)-2,5-difluorophenyl)propan-2-yl)-7,7a-dihydrobenzo[d][1,3]dioxol-5(6H)-one] | – | – | 70 | 330 | – | –
C=CC[C@H]1C[C@]2([C@@H](C)Cc3ccccc3)OCOC2=CC1=O [Compound 49] | – | – | – | – | 5100 | 9700
C=CC[C@H]1C[C@]2([C@@H](C)Cc3cccc(OC)c3)OCOC2=CC1=O [Compound 50, (6S,7aR)-6-allyl-7a-((S)-1-(3-methoxyphenyl)propan-2-yl)-7,7a-dihydrobenzo[d][1,3]dioxol-5(6H)-one] | – | – | – | – | 8800 | 10600
C=CC[C@H]1C[C@]2([C@H](C)Cc3ccc(OC)cc3C)OCOC2=CC1=O [Compound 51, (6S,7aR)-6-allyl-7a-((R)-1-(4-methoxy-2-methylphenyl)propan-2-yl)-7,7a-dihydrobenzo[d][1,3]dioxol-5(6H)-one] | – | – | – | – | 280 | 780
C=CC[C@H]1C[C@]2(C(C)Cc3ccc(OC)cc3OC)OCOC2=CC1=O (stereo partly drawn) [Compound 52, (6S,7aR)-6-allyl-7a-(1-(2,4-dimethoxyphenyl)propan-2-yl)-7,7a-dihydrobenzo[d][1,3]dioxol-5(6H)-one] | – | – | – | – | 15000 | 15000
C=CC[C@H]1C[C@]2([C@@H](C)Cc3ccc(OC)cc3OC(C)=O)OCOC2=CC1=O [Compound 53, 2-((S)-2-((3aR,5S)-5-allyl-6-oxo-3a,4,5,6-tetrahydrobenzo[d][1,3]dioxol-3a-yl)propyl)-5-methoxyphenyl acetate] | – | – | – | – | 270 | 2300
C=CC[C@H]1C[C@]2([C@H](C)Cc3ccc(OC)cc3Cl)OCOC2=CC1=O [Compound 54, (6S,7aR)-6-allyl-7a-((R)-1-(2-chloro-4-methoxyphenyl)propan-2-yl)-7,7a-dihydrobenzo[d][1,3]dioxol-5(6H)-one] | – | – | – | – | 45 | 320
C=CC[C@H]1C[C@]2(C(C)Cc3cc(F)c(OC)c(F)c3)OCOC2=CC1=O (stereo partly drawn) [Compound 55, (6S,7aR)-6-allyl-7a-(1-(3,5-difluoro-4-methoxyphenyl)propan-2-yl)-7,7a-dihydrobenzo[d][1,3]dioxol-5(6H)-one] | – | – | – | – | 3300 | 3800
